According to US20060008880A1, “Mouse trace amine associated receptors and polypeptides” (priority 2004, published 2006):
pEC50: −log10 of the molar value.

What follows are compounds tested against Mouse TAAR 1 (Mus musculus, UniProt Q923Y8) (assay: cAMP Biotrak EIA functional assay in HEK293 cells stably expressing mTAAR1). Conditions: not given.
Chain of Mouse TAAR 1 (Q923Y8 whole entry): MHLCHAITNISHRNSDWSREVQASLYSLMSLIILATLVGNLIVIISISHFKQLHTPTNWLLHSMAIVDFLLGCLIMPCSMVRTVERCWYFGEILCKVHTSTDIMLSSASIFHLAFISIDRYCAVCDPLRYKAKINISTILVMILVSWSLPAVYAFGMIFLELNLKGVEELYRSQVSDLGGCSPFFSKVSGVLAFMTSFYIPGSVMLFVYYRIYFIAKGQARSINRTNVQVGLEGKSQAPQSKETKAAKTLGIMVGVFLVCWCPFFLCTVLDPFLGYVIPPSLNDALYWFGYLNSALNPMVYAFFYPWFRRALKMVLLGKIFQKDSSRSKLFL
Format: cell-based
Text: Stable cell lines: For the generation of stably transfected cell lines HEK cells were transfected with the pIRES-NEO2 expression vectors of the respective TAARs by using Lipofectamin 2000 transfection reagent and Optimem 1 reduced serum medium with Glutamax (Invitrogen Cat. # 51985-026) following the recommendations given in the Lipofectamine 2000 datasheet. After 24 hr post transfection cells were trypsinated and transferred into 90 mm tissue culture dishes (Nunc) at dilutions between 1:10-1:300 in culture medium supplemented with 1 mg/ml G418 which was renewed on a daily basis. […] Picking of clones was performed by detaching the entire clone from the culture dish using a 1 ml Gilson pipette, trypsinizing the clone in a 1.5 ml Eppendorf cup using Trypsin/EDTA (Invitrogen Cat. # 25300-062) and plating them into a 48 well dish, from where the cells were subsequently expanded by transferring them to increasing culture surface areas (48 well—12 well—60 mm etc.). Whenever cells were transferred to a new plate they were carefully trypsinized. As soon as single clones were selected, the concentration of G418 in the culture medium was reduced to 500 µg/ml.
With `NCCc1c[nH]c2ccc(O)cc12` [Serotonin, 5-HT, Serotonin] the pEC50 was under 4.30.
Work on `NCCc1c[nH]c2ccccc12` [TRY, tryptamine] yielded a pEC50 of 5.70.
`NCCc1ccccc1` [β-PEA, β-phenylethylamine] showed a pEC50 of 6.18.

Same assay, conditions: maximal response as percentage of the maximal cAMP levels induced by p-TYR; HEK293 cells stably expressing mTAAR1
For `NCC(O)c1ccc(O)cc1` (stereo not drawn) [OCT, octopamine], the “Max (96)” value was 100 percentage.

Same assay, conditions: read-out: EC50
With `NCCc1ccc(O)c(O)c1` [Dopamine, dopamine] the pEC50 was 4.93.
`NCCc1c[nH]cn1` [Histamine, histamine] was tested, and the pEC50 was under 4.30.
`CNCCc1ccccc1` [N-methyl-β-PEA] was tested, and the pEC50 was 6.82.
With `NC[C@H](O)c1ccc(O)c(O)c1` [Norepinephrine, norepinephrine] the pEC50 was under 4.30.
Compound `NCC(O)c1ccc(O)cc1` (stereo not drawn) [OCT, octopamine] has a pEC50 of 4.71.
